What all share (type): functional
The subject of experiment [1] is THP-1. The experiment in a line: Inhibition of LPS-stimulated TNFalpha secretion in human THP1 cells at 10 uM after 24 hrs by ELISA. The settings on record: THP-1, 24 h. On the technique in general: In an ELISA, binding on a coated surface is turned into a signal by an enzyme label.
Experiment [2] concerns THP-1. The experiment in a line: Inhibition of LPS-stimulated TNFalpha secretion in human THP1 cells at 50 uM after 24 hrs by ELISA. Conditions: THP-1, 24 h.
The subject of experiment [3] is PBMC. The experiment in a line: Inhibition of LPS-stimulated TNFalpha secretion in human PBMC cells at 10 uM after 24 hrs by ELISA.
Experiment [4] relates to PBMC. The experiment in a line: Inhibition of LPS-stimulated TNFalpha secretion in human PBMC cells at 50 uM after 24 hrs by ELISA.

`CSc1c(-c2ccccc2)c2ccccc2[nH]c1=O`: the values for the inhibition at 10 µM in the experiment on THP-1 [1] and with PBMC [3] were 49% and 78%, respectively. For the same compound, the inhibition – broadly, the percentage by which the read-out fell short of the control – at 50 µM in the experiment on THP-1 [2] worked out at 93%; in the experiment on PBMC [4] it was 95%.
Regarding `COc1c(-c2ccccc2)c2ccccc2[nH]c1=O`, the inhibition at 10 µM with THP-1 [1] was determined as 7%; in the experiment on PBMC [3], 24%. The inhibition at 50 µM is 10% with THP-1 [2] and 67% with PBMC [4].
For the compound `CNc1c(-c2ccccc2)c2ccccc2[nH]c1=O`, the inhibition at 10 µM in the experiment on THP-1 [1] came to 50%; with PBMC [3] it was 36%. Further, the inhibition at 50 µM is 97% with THP-1 [2] and 67% in the experiment on PBMC [4].
Consider `CSc1c(-c2ccccc2)c2cc([N+](=O)[O-])ccc2[nH]c1=O`, for which the inhibition at 10 µM in the experiment with PBMC [3] amounted to 86%. Also, the inhibition at 50 µM in the experiment with PBMC [4] worked out at 94%.
Turning to `COCCN(CCOC)c1c(-c2ccccc2)c2ccccc2[nH]c1=O`, in the experiment on THP-1 [1], the inhibition at 10 µM worked out at 0%. In the experiment with THP-1 [2], at 50 µM the inhibition was 59%.
Consider `CN(C)c1c(-c2ccccc2)c2ccccc2[nH]c1=O`, for which the inhibition at 10 µM in the experiment on THP-1 [1] turned out to be 0%. Besides, the inhibition at 50 µM in the experiment with THP-1 [2] was determined as 83%.
`CN(CCO)c1c(-c2ccccc2)c2ccccc2[nH]c1=O` had an inhibition at 10 µM in the experiment with THP-1 [1] of 0%. This compound also displayed an inhibition at 50 µM in the experiment on THP-1 [2] of 21%.
Regarding `Nc1c(-c2ccccc2)c2ccccc2[nH]c1=O`, the inhibition at 10 µM in the experiment on PBMC [3] was found to be 29%. The inhibition at 50 µM with PBMC [4] was determined as 79%.
Consider `CN(C)C(=O)N1CCN(c2c(-c3ccccc3)c3ccccc3[nH]c2=O)CC1`, for which the inhibition at 10 µM in the experiment with THP-1 [1] amounted to 21%. 50 µM produced 43% inhibition in the experiment with THP-1 [2].
As for `CCc1c(-c2ccccc2)c2ccccc2[nH]c1=O`, the inhibition at 10 µM with THP-1 [1] was found to be 3%; in the experiment with PBMC [3], 32%. The inhibition at 50 µM in the experiment with THP-1 [2] was determined as 80%; with PBMC [4], 50%.
